Legend:
[1] = DRUGMATRIX: Sodium/nucleoside co-transporter radioligand binding (ligand: nitrobenzylthioinosine); assay type: cell membranes, Cavia porcellus, Dunkin-Hartley, Cerebral cortex, Membrane; conditions: Not Active = under 50% inhibition at 10 µM
[2] = molecular target: Sodium-dependent noradrenaline transporter (Homo sapiens, UniProt P23975); experiment: DRUGMATRIX: Norepinephrine Transporter radioligand binding (ligand: [125I] RTI-55); assay type: cell membranes, MDCK, Membrane; conditions: Not Active = under 50% inhibition at 10 µM
Sodium-dependent noradrenaline transporter, sequence (P23975 whole entry): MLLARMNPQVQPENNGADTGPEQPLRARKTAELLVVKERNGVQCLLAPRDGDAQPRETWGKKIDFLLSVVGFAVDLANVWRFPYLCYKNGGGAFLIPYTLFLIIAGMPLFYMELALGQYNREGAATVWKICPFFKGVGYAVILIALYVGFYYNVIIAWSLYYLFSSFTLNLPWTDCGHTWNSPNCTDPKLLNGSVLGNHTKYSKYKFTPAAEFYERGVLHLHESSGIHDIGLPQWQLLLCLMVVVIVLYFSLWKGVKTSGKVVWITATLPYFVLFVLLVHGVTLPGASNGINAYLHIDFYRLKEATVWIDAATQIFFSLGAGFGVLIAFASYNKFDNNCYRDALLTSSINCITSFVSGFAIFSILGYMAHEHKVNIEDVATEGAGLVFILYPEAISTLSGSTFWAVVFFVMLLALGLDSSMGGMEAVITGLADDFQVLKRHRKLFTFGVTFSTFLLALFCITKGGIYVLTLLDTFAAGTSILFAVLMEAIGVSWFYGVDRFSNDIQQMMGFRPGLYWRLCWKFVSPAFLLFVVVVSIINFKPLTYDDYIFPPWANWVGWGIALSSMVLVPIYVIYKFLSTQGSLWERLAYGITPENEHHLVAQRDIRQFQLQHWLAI

[3] = DRUGMATRIX: Interleukin IL-1 radioligand binding (ligand: [125I] interleukin 1beta); assay type: cell membranes, Membrane; conditions: nih3t3; Not Active = under 50% inhibition at 10 µM
[4] = molecular target: Melanocortin receptor 4 (Homo sapiens, UniProt P32245); assay type: cell membranes, Membrane; conditions: hek293; note: in other assays of this panel Not Active means under 50% inhibition at 10 µM
Melanocortin receptor 4, sequence (P32245 whole entry): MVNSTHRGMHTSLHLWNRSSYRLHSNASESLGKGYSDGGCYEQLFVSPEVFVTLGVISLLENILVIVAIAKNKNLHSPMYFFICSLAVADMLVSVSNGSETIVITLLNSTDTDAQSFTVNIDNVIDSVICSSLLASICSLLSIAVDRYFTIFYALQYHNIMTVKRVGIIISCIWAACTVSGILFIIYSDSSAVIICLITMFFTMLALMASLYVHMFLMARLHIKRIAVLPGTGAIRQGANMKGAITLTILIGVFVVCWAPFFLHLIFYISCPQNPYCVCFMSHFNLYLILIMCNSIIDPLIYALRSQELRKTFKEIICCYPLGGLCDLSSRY

[5] = molecular target: Melanocortin receptor 5 (Homo sapiens, UniProt P33032); assay type: cell membranes, HEK293, Membrane; conditions: hek293; note: in other assays of this panel Not Active means under 50% inhibition at 10 µM
Melanocortin receptor 5, sequence (P33032 whole entry): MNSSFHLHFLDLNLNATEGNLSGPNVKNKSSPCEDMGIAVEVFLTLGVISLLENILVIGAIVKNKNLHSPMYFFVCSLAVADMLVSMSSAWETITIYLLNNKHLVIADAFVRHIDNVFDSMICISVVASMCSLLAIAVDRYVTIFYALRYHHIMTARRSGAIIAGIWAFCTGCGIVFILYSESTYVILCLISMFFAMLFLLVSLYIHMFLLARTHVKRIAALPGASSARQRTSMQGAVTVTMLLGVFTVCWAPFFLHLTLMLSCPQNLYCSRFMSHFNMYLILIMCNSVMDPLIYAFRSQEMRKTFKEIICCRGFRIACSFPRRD

[6] = molecular target: T1, Muscarinic acetylcholine receptor M4 (Homo sapiens, UniProt P08173); assay type: cell membranes, CHO-K1, Membrane; note: in other assays of this panel Not Active means under 50% inhibition at 10 µM
T1 sequence (P08173 whole entry): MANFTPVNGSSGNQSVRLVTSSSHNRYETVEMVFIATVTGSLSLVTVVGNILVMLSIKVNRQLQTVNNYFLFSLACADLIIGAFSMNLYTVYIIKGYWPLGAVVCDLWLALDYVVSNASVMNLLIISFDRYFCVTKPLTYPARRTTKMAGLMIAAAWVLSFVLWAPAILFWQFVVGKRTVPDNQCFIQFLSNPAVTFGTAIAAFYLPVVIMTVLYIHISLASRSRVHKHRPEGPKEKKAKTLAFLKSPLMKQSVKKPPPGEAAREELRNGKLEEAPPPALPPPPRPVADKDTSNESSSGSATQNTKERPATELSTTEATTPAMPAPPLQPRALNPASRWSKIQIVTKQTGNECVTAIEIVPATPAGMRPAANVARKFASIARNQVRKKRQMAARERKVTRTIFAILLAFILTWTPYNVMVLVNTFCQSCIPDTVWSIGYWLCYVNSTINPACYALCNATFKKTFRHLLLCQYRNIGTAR

[7] = molecular target: T2, Muscarinic acetylcholine receptor M5 (Homo sapiens, UniProt P08912); assay type: cell membranes, CHO-K1, Membrane; note: in other assays of this panel Not Active means under 50% inhibition at 10 µM
T2 sequence (P08912 whole entry): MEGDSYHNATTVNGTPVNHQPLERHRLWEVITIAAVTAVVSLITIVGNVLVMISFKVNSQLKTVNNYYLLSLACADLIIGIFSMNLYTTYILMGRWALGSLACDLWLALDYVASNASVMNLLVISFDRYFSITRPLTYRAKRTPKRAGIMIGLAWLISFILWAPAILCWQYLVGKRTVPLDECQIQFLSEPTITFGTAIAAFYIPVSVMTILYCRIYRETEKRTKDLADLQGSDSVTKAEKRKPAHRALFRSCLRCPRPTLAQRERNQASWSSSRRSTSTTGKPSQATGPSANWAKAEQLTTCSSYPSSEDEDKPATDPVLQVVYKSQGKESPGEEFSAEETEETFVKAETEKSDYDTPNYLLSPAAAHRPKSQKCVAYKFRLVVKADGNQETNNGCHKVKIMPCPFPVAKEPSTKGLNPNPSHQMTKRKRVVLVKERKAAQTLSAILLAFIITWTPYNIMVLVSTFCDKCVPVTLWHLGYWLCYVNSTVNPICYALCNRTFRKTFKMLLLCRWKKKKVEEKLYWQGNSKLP

[8] = molecular target: T3, Neuropeptide Y receptor type 2 (Homo sapiens, UniProt P49146); assay type: cell membranes, Membrane; conditions: kan-ts; note: in other assays of this panel Not Active means under 50% inhibition at 10 µM
T3 sequence (P49146 whole entry): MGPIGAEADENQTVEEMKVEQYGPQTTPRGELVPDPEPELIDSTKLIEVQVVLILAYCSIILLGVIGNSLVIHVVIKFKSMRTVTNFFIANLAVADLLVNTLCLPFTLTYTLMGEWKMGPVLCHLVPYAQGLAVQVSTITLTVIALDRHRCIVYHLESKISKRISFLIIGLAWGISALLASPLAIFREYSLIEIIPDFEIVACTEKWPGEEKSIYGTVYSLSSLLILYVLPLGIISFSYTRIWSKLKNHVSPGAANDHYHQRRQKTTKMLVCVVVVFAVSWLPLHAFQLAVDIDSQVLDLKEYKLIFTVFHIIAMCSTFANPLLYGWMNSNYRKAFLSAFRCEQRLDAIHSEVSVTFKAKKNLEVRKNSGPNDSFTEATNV

[9] = molecular target: Platelet-activating factor receptor (Homo sapiens, UniProt P25105); experiment: biochemical; assay type: tissue-based; conditions: platelet; note: in other assays of this panel Not Active means under 50% inhibition at 10 µM
Platelet-activating factor receptor, sequence (P25105 whole entry): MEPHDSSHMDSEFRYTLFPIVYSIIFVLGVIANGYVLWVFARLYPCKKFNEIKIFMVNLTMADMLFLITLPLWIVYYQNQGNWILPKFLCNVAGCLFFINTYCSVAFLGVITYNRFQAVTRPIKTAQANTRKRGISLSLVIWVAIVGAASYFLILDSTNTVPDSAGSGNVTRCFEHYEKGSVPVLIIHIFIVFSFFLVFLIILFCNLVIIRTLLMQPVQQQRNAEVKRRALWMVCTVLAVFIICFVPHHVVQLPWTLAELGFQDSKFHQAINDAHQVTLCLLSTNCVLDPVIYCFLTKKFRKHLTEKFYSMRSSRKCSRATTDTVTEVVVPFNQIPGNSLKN

[10] = molecular target: T4, Interstitial collagenase (Homo sapiens, UniProt P03956); assay type: tissue-based, Rheumatoid synovial fibroblasts
T4 sequence (P03956 whole entry): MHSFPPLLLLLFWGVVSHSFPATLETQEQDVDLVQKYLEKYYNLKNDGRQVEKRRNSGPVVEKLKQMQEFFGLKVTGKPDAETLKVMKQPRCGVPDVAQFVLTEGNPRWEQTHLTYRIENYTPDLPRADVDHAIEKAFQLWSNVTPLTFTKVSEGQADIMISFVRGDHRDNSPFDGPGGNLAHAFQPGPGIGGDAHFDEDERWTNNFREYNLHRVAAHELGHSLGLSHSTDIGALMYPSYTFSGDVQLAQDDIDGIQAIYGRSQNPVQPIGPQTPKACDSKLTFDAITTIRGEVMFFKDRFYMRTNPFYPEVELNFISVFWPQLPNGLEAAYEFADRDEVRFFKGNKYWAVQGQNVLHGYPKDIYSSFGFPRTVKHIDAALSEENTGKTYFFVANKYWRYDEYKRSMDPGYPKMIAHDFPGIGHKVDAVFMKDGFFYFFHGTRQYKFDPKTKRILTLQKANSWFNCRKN

[11] = molecular target: 5-hydroxytryptamine receptor 1B (Rattus norvegicus, UniProt P28564); assay type: cell membranes, Wistar, Cerebral cortex, Membrane; conditions: for Ki: read-out: Ki
5-hydroxytryptamine receptor 1B, sequence (P28564 whole entry): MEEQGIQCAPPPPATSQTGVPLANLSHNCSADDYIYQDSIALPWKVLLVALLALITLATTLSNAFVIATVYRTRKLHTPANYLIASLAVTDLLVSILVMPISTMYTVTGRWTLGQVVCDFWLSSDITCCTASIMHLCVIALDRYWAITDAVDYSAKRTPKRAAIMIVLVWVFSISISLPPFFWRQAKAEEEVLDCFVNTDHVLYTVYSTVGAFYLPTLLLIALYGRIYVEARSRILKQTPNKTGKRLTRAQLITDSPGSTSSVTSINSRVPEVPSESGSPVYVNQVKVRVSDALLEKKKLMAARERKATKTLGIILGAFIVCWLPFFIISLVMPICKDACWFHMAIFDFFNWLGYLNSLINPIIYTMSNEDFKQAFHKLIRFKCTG

[12] = molecular target: Beta-2 adrenergic receptor (Homo sapiens, UniProt P07550); experiment: DRUGMATRIX: Adrenergic beta2 radioligand binding (ligand: [3H] CGP-12177); assay type: cell membranes, Membrane; conditions: cho; Not Active = under 50% inhibition at 10 µM
Beta-2 adrenergic receptor, sequence (P07550 whole entry): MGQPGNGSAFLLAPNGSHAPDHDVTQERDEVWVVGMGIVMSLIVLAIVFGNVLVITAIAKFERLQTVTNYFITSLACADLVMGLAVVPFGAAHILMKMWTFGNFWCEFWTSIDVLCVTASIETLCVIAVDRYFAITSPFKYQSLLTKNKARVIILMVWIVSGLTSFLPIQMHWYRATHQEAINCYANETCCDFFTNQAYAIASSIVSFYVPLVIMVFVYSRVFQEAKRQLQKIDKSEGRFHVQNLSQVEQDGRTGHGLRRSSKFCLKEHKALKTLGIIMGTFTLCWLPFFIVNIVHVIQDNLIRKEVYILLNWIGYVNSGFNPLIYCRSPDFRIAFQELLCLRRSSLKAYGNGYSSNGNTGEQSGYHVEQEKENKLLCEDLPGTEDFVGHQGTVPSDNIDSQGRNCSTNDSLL

[13] = molecular target: Cytochrome P450 2C19 (Homo sapiens, UniProt P33261); conditions: bti-tn-5b1-4; note: in other assays of this panel Not Active means under 50% inhibition at 10 µM
Cytochrome P450 2C19, sequence (P33261 whole entry): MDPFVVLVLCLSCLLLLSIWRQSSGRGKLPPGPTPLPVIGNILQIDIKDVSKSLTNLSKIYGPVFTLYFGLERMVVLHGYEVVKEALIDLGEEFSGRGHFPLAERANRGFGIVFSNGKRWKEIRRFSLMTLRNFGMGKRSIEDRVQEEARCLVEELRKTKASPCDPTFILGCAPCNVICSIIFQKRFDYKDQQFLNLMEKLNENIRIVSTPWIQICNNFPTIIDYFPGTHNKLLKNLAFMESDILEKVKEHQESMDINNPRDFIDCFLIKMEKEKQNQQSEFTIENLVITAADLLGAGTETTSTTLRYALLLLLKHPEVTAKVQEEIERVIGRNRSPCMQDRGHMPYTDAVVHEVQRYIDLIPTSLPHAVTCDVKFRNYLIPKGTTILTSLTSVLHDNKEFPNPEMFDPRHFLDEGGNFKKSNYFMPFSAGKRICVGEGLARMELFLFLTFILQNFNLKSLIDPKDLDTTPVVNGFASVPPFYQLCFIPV

SMILES	IC50 [1]	Ki [1]	IC50 [3]	Ki [3]	IC50 [4]	IC50 [5]	IC50 ([6]; cho-k1)	IC50 ([7]; cho-k1)	IC50 [8]	IC50 [9]	IC50 [10]	IC50 [11]	IC50 [12]	IC50 [13]	Ki [13]	other results
CC(C)NC[C@H](O)COc1cccc2[nH]ccc12	Not Active	Not Active	Not Active	Not Active	Not Active	Not Active	Not Active	Not Active	Not Active	Not Active	Not Active	Not Active				IC50 ([2]; mdck): Not Active
CCCCCCCCCc1ccc(O)cc1 [4-NONYLPHENOL]	Not Active	Not Active	Not Active	Not Active	Not Active	Not Active	Not Active		Not Active	Not Active	Not Active	Not Active	Not Active	Not Active	Not Active	IC50 ([2]; read-out: IC50): 1250 nM; Ki ([2]; read-out: Ki): 1240 nM
COCc1c(C(C)C)nc(C(C)C)c(/C=C/[C@@H](O)C[C@@H](O)CC(=O)O)c1-c1ccc(F)cc1 [CERIVASTATIN]	Not Active	Not Active	Not Active	Not Active	Not Active	Not Active	Not Active	Not Active	Not Active	Not Active	Not Active	Not Active	Not Active	Not Active	Not Active	
CN(C)CCCC1(c2ccc(F)cc2)OCc2cc(C#N)ccc21 (centres undefined) [CITALOPRAM]	Not Active	Not Active	Not Active	Not Active	Not Active	Not Active	Not Active	Not Active	Not Active	Not Active	Not Active	Not Active	Not Active	Not Active	Not Active	
CN1C[C@H](C(=O)N[C@]2(C)O[C@@]3(O)[C@@H]4CCCN4C(=O)[C@H](Cc4ccccc4)N3C2=O)C=C2c3cccc4[nH]cc(c34)C[C@H]21 [ERGOTAMINE]	Not Active	Not Active	Not Active	Not Active	Not Active	Not Active	Not Active	Not Active	Not Active	Not Active	Not Active			Not Active	Not Active	IC50 ([2]; mdck): Not Active; IC50 ([11]; read-out: IC50): 0.201 nM; Ki [11]: 0.091 nM
Nc1nc2c(ncn2COC(CO)CO)c(=O)[nH]1 [GANCICLOVIR]	Not Active	Not Active	Not Active	Not Active	Not Active	Not Active	Not Active	Not Active	Not Active	Not Active	Not Active	Not Active	Not Active	Not Active	Not Active	
CNCCC=C1c2ccccc2CCc2ccccc21 [NORTRIPTYLINE]	Not Active	Not Active	Not Active	Not Active	Not Active	Not Active			Not Active	Not Active	Not Active		Not Active			IC50 ([7]; read-out: IC50): 27 nM; Ki ([7]; read-out: Ki): 20 nM; IC50 ([11]; read-out: IC50): 3200 nM; Ki [11]: 1450 nM
CC1COc2c(N3CCN(C)CC3)c(F)cc3c(=O)c(C(=O)O)cn1c23 (centres undefined) [OFLOXACIN]	Not Active	Not Active	Not Active	Not Active	Not Active	Not Active	Not Active	Not Active	Not Active	Not Active	Not Active	Not Active	Not Active	Not Active	Not Active	
Fc1ccc([C@@H]2CCNC[C@H]2COc2ccc3c(c2)OCO3)cc1 [PAROXETINE]	Not Active	Not Active	Not Active	Not Active	Not Active	Not Active			Not Active	Not Active	Not Active	Not Active	Not Active	Not Active	Not Active	IC50 ([6]; read-out: IC50): 244 nM; Ki ([6]; read-out: Ki): 34 nM
COc1ccc(CN(CCN(C)C)c2ccccn2)cc1 [PYRILAMINE]	Not Active	Not Active	Not Active	Not Active	Not Active	Not Active	Not Active	Not Active	Not Active	Not Active	Not Active	Not Active	Not Active	Not Active	Not Active	
